Tested on: TCR and CD8 on F5 T cells
Experiment: Micropipette adhesion frequency assay, F5 T cells vs pMHC-coated RBCs
Type: binding, mouse
Settings: 32 NP68:H-2D^b/μm^2, BAPTA-AM 50 μM, PD98059 50 μM

CC(=O)OCOC(=O)CN(CC(=O)OCOC(C)=O)c1ccccc1OCCOc1ccccc1N(CC(=O)OCOC(C)=O)CC(=O)OCOC(C)=O [BAPTA-AM]
effect on two-stage kinetics / upregulated adhesion: two-stage kinetics were unaffected

From article PMC3381515 (Immunity, 2011)
